From patent US10669272B2, “Substituted naphthyridinone compounds useful as T cell activators” (BRISTOL-MYERS SQUIBB COMPANY, priority 2018, dated 2020)
pEC50, pIC50: −log10 of the molar value. Read-outs that look alike come from different tables or passages of the source.

How the values were obtained:
human DGKζ = molecular target: T1, human DGKζ (Homo sapiens, UniProt Q13574); test: DGKζ LIPGLO assay (extruded liposome substrate), in vitro DGK inhibition; assay type: biochemical; settings: read-out: DGKz LIPGLO IC50
T1 construct: TVMV protease cleavage site (C); Hexa-His (C); made in house; host or cells: Sf9 insect cells (baculovirus, Bac-to-Bac)

Human venous whole blood = test: Human whole blood IFN-γ assay; assay type: cell-based; settings: human whole blood, read-out: INFg Whole Blood Normalized Agonist EC50;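 further: blood from healthy donors exposed to compound for 1 h before stimulation with anti-CD3 and anti-CD28 at 1 µg/mL each, IFN-γ quantified in supernatant by AlphaLISA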
Experimental: Human Whole Blood IFN-γ Assay
Human venous whole blood (22.5 μL per well), obtained from healthy donors, was pre-treated with compounds for one hour at 37° C. in a humidified 95% air/5% CO2 incubator. The blood was stimulated with 2.5 μL anti-human CD3 and anti-CD28 mAb at a final concentration of 1 μg/mL each for 24 hours at 37° C. IFN-γ in the supernatants was measured using AlphLISA kit (Cat # AL217).

human DGKα = molecular target: T2, human DGKα (Homo sapiens, UniProt P23743); test: DGKα LIPGLO assay (extruded liposome substrate), in vitro DGK inhibition; assay type: biochemical; settings: read-out: DGKa LIPGLO IC50
T2 construct: TVMV protease cleavage site (C); Hexa-His (C); made in house; host or cells: Sf9 insect cells (baculovirus, Bac-to-Bac)

[1] = normalized to 3 μM reference compound with anti-CD3 plus anti-CD28 as 100% activation
[2] = anti-CD3 plus anti-CD28, 24 hours, 3 μM reference compound = 100% activation
[3] = Homo sapiens, 24 h, anti-CD3 plus anti-CD28, 24 hours, 3 μM reference compound = 100% activation
[4] = Homo sapiens, 24 h, normalized to 3 μM reference compound with anti-CD3 plus anti-CD28 as 100% activation

T1 sequence (Q13574 with tags, fused parts or gaps isoform Q13574-4): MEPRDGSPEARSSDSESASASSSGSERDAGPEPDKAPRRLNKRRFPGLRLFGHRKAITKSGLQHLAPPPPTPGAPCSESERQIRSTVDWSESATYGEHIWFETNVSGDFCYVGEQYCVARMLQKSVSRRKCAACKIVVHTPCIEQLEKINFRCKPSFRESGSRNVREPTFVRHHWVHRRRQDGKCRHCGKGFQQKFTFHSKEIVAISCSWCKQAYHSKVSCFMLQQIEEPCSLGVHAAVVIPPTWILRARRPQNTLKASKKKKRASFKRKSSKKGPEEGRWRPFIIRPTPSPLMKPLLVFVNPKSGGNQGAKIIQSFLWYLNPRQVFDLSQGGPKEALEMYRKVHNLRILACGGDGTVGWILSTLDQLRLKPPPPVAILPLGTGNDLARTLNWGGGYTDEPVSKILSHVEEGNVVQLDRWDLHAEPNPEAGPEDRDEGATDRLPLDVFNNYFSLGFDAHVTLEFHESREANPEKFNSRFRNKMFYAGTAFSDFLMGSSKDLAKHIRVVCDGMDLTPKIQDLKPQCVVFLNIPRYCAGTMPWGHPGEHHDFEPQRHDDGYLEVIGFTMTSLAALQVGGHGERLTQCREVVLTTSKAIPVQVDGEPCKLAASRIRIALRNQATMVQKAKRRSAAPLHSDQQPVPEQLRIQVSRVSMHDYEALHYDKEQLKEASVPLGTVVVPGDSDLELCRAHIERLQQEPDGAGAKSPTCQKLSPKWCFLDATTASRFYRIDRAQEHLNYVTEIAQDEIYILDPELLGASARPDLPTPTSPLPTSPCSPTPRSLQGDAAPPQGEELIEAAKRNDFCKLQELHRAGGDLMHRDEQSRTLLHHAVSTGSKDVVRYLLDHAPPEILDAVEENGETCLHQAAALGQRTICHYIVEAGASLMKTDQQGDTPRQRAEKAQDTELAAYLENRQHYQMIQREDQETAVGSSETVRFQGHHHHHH
T2 sequence (P23743 with tags, fused parts or gaps): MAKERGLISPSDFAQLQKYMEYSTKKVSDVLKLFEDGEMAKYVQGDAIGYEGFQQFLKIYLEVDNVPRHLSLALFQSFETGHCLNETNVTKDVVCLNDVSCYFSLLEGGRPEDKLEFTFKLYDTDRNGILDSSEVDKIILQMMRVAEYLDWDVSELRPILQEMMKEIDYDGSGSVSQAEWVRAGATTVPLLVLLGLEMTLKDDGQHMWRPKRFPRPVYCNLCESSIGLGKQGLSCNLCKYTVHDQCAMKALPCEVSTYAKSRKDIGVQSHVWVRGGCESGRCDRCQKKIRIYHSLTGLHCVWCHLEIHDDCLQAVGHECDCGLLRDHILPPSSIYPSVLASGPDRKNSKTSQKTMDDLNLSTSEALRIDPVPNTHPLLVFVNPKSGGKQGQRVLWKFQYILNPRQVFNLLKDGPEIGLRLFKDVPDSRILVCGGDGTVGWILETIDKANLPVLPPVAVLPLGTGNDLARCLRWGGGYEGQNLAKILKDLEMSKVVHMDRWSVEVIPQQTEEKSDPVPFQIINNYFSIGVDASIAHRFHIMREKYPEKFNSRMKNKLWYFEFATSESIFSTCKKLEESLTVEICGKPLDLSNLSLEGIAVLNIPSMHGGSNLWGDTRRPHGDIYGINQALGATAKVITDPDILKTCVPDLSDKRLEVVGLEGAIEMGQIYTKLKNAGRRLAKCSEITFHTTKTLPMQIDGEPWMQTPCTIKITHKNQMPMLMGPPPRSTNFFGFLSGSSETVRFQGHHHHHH

Structure (SMILES)	pIC50 (human DGKζ; liposome (LIPGLO) assay)	pEC50 (Human venous whole blood; [1])	pIC50 (human DGKα; liposome (LIPGLO) assay)	pIC50 (human DGKζ; DGKζ liposome (LIPGLO) assay)	pEC50 (Human venous whole blood; [2])	pIC50 (human DGKα; DGKα liposome (LIPGLO) assay)	pEC50 (Human venous whole blood; [3])	pEC50 (Human venous whole blood; [4])
CC(c1cccc2c1OC(F)(F)O2)N1C[C@H](C)N(c2cc(=O)n(C)c3ccc(C#N)nc23)C[C@H]1C (single isomer, unassigned) [Example 1217]	5.68	5.34	4.43					
CC1CN(C(c2ccc(F)cc2)c2nc(C(C)(C)C)no2)C(C)CN1c1c(C#N)c(=O)n(C)c2ccc(C#N)nc12 (single isomer, unassigned) [Example 863]				6.72	6.14	6.28		
CC(c1ccc(C#N)cc1)N1CCN(c2c(C#N)c(=O)n(C)c3ccc(C#N)nc23)C[C@H]1C (stereo partly drawn) [Example 954]				5.19		6.89	4.70	
C[C@@H]1CN(c2cc(=O)n(C)c3ccc(C#N)nc23)[C@@H](C)CN1Cc1ccc(OC(F)(F)F)c(Cl)c1 [Example 611]	4.68		5.17					5.43
CC[C@H]1CN(C(c2ccc(F)cc2)c2ccc(Cl)cc2)[C@H](C)CN1c1cc(=O)n(C)c2ccc(C#N)nc12 (stereo partly drawn) [Example 1127]	5.62		6.17					6.28
CC(c1ccc(C2(C#N)CC2)cc1)N1C[C@H](C)N(c2cc(=O)n(C)c3ccc(C#N)nc23)C[C@H]1C (stereo partly drawn) [Example 1254]	6.47	5.74	5.72					
C[C@@H]1CN(c2c(C#N)c(=O)n(C)c3ccc(C#N)nc23)CCN1C(c1ccc(F)cc1)c1cncnc1 (stereo partly drawn) [Example 318, 8-((3R)-4-((4-fluorophenyl)(pyrimidin-5-yl)methyl)-3-methylpiperazin-1-yl)-5-methyl-6-oxo-5,6-dihydro-1,5-naphthyridine-2,7-dicarbonitrile]	4.85		5.31					5.13
C[C@@H]1CN(c2cc(=O)n(C)c3ccc(C#N)nc23)[C@@H](C)CN1Cc1ccc(OC(F)(F)F)c(Br)c1 [Example 629]	4.74		4.96					5.38
Cc1ccc(C(c2ccc(C)c(Cl)c2)N2C[C@H](C)N(c3cc(=O)n(C)c4ccc(C#N)nc34)C[C@H]2C)nc1 (single isomer, unassigned) [Example 380]	5.80	6.20	5.51					
C[C@@H]1CN(c2cc(=O)n(C)c3ccc(C#N)nc23)[C@@H](C)CN1C(c1ccc(F)cc1)c1nnc(C2CC2)[nH]1 (single isomer, unassigned) [Example 767]				5.18	5.64	6.36		
CC[C@H]1CN(C(C)c2ccc(F)cc2)[C@H](C)CN1c1cc(=O)n(C)c2ccc(C#N)nc12 (single isomer, unassigned) [Example 1136]	4.96	5.64	5.96					
CC[C@@H]1CN(c2cc(=O)n(C)c3ccc(C#N)nc23)[C@@H](C)CN1C(C)c1ccc(F)cc1 (single isomer, unassigned) [Example 1084]	5.30	5.59	5.77					
Cc1cc(C(c2ccc(F)cc2)N2C[C@H](C)N(c3cc(=O)n(C)c4ccc(C#N)nc34)C[C@H]2C)no1 (single isomer, unassigned) [Example 733]				5.82	5.46	5.39		
Cc1ccc(C)c(C(C)N2CCN(c3c(C#N)c(=O)n(C)c4ccc(C#N)nc34)C[C@H]2C)c1 (single isomer, unassigned) [Example 976]				5.19	4.70	4.77		
C[C@@H]1CN(c2cc(=O)n(C)c3ccc(C#N)nc23)[C@@H](C)CN1C(c1ccc(F)cc1)c1cnn(C)c1 (single isomer, unassigned) [Example 703]	5.60	5.92	5.40					
COc1cc(F)c(C(C)N2C[C@H](C)N(c3cc(=O)n(C)c4ccc(C#N)nc34)C[C@H]2C)cc1F (stereo partly drawn) [Example 1244]	7.52		6.18					6.92
CCC(c1ccc(OC(C)C)cc1)N1C[C@H](C)N(c2cc(=O)n(C)c3ccc(C#N)nc23)C[C@H]1C (single isomer, unassigned) [Example 1450]	5.44	5.17	4.66					

Structure (SMILES)	pIC50 (human DGKζ; liposome (LIPGLO) assay)	pEC50 (Human venous whole blood; [1])	pIC50 (human DGKα; liposome (LIPGLO) assay)	pIC50 (human DGKζ; DGKζ liposome (LIPGLO) assay)	pEC50 (Human venous whole blood; [2])	pIC50 (human DGKα; DGKα liposome (LIPGLO) assay)	pEC50 (Human venous whole blood; [3])	pEC50 (Human venous whole blood; [4])
CC[C@@H]1CN(c2cc(=O)n(C)c3ccc(C#N)nc23)[C@@H](C)CN1C(C)c1ccc(F)c(F)c1 (single isomer, unassigned) [Example 1091]	6.96	6.85	6.64					
C[C@@H]1CN(c2cc(=O)n(C)c3ccc(C#N)nc23)[C@@H](C)CN1C(c1ccc(F)cc1)c1nccs1 (single isomer, unassigned) [Example 712]	6.14	5.55	6.49					
CC[C@H]1CN(C(c2ccc(F)cc2)c2ccc(C#N)cc2)[C@H](CC)CN1c1cc(=O)n(C)c2ccc(C#N)nc12 (stereo partly drawn) [Example 1035]	5.96		6.43					6.54
CC[C@H]1CN(C(c2ccc(F)cc2)c2ccc(C#N)cc2)[C@H](CC)CN1c1cc(=O)n(C)c2ccc(C#N)nc12 (stereo partly drawn) [Example 1036]	6.28	6.70	6.52					
Cc1ccc(CN2CCN(c3c(C#N)c(=O)n(C)c4ccc(C#N)nc34)C[C@H]2C)cc1F [Example 1002]				5.33		5.57	5.26	
CC(c1cc(C(C)(C)C)on1)N1C[C@H](C)N(c2cc(=O)n(C)c3ccc(C#N)nc23)C[C@H]1C (single isomer, unassigned) [Example 1283]	5.12		5.39					5.40
C[C@@H]1CN(c2c(C#N)c(=O)n(C)c3ccc(C#N)nc23)CCN1C(c1ccc(F)cc1)c1cccc(C(F)(F)F)n1 (single isomer, unassigned) [Example 921]				5.51	5.82	4.64		
CC[C@H]1CN(C(c2ccc(F)cc2)c2cocn2)[C@H](CC)CN1c1cc(=O)n(C)c2ccc(C#N)nc12 (single isomer, unassigned) [Example 1069]	6.04	5.68	7.22					
C[C@@H]1CN(c2cc(=O)n(C)c3ccc(C#N)nc23)[C@@H](C)CN1C(c1ccc(F)cc1)c1nnc(C2CC2)[nH]1 (single isomer, unassigned) [Example 766]				5.03		6.18	5.46	
CC[C@H]1CN(C(C)c2ccc(C(F)(F)F)cc2F)[C@H](CC)CN1c1cc(=O)n(C)c2ccc(C#N)nc12 (single isomer, unassigned) [Example 1364]	7.54	7.24	6.82					
C[C@@H]1CN(c2cc(=O)n(C)c3ccc(C#N)nc23)[C@@H](C)CN1Cc1cccc(OC(F)(F)F)c1 [Example 586]	5.25		5.14					5.64
Cc1ccc(C(c2ncccc2F)N2CCN(c3c(C#N)c(=O)n(C)c4ccc(C#N)nc34)C[C@H]2C)cc1 (single isomer, unassigned) [Example 890]				5.08		4.96	5.18	
Cc1ccc(C(c2ccc(C)cc2)N2CCN(c3c(C#N)c(=O)n(C)c4ccc(C#N)nc34)C[C@H]2C)cc1 [Example 870]				6.51		5.60	5.85	
CC[C@H]1CN(C(c2cccc(F)c2)c2ccc(C)cn2)[C@H](C)CN1c1cc(=O)n(C)c2ccc(C#N)nc12 (single isomer, unassigned) [Example 1126]	5.52	6.02	5.92					
CC(c1ccccc1OC(F)(F)F)N1C[C@H](C)N(c2cc(=O)n(C)c3ccc(C#N)nc23)C[C@H]1C (single isomer, unassigned) [Example 1212]	6.96		4.64					4.96
CC[C@@H]1CN(c2cc(=O)n(C)c3ccc(C#N)nc23)[C@@H](CC)CN1Cc1ccc(F)cc1F [Example 1062]	7.12		7.24					6.96
COc1cccc(C(c2ccc(F)cc2)N2C[C@H](C)N(c3cc(=O)n(C)c4ccc(C#N)nc34)C[C@H]2C)c1 (single isomer, unassigned) [Example 661]	5.77	6.00	5.39					
